From patent US20200217852A1, “Quantitation of Free and Total N-Acetylcysteine Amide and Its Metabolite N-Acetylcysteine in Human Plasma Using Derivatization and Electrospray LC-MS/MS” (NACUITY PHARMACEUTICALS, INC., priority 2019, published 2020)
Read-outs that look alike come from different tables or passages of the source.

Legend:
[1] = Stability of underivatized NAC and NACA thiol in plasma monitored directly by HILIC LC-MS/MS; assay type: in vitro ADME; details: human, room temperature, read-out: Half-lives for thiol disappearance
Method: Half-lives for thiol disappearance were approximately 10 minutes at room temperature. Therefore, the inventors sought to stabilize NAC and NACA by derivatization. When plasma samples spiked with NAC and NACA were treated with TCEP and CMPI, the thiols were well recovered as the thioether derivatives.
(§1) All stability testing in plasma (benchtop, freeze/thaw, and long-term storage) was performed using QC samples prepared in both CMPI-fortified plasma as well as unfortified plasma. In this manner, the stabilities of both the oxidized thiols (in disulfide forms) and the thioether derivatives were tested, since it was assumed that unknown samples would likely contain some of both species. The CMPI-thioethers were stable for at least 5 freeze/thaw cycles and for at least 20 hours at room temperature, as compared to less than 1 hour for the underivatized free thiols. The oxidized thiols were stable for at least 5 freeze/thaw cycles and for at least 22 hours, as evidenced by their full recovery as thioethers when assayed using the total method. Stability was also tested in extracts, whether held for first injection or reinjected. Extracts were stable for over 90 hours when refrigerated. Precision and accuracy was acceptable in lipemic and hemolyzed plasma.

[2] = assay type: in vitro ADME; details: human
Method: Calibration standards (CS) were prepared by mixing CMPI-fortified control matrix (95 parts) with the respective spiking solution (5 parts) to make 50.0, 40.0, 20.0, 5.00, 2.50, 0.500, 0.100, and 0.050 μg/mL NAC/NACA pools which were stable for at least 80 days when stored at −20° C. and for 284 days when stored at −80° C. It was critical that CS pools be spiked quickly after CMPI fortification of the plasma, with the lowest concentration pools being spiked first, within 5-10 minutes of mixing plasma with CMPI.
Validation. The method was validated according to regulatory guidances. Three independently prepared analytical runs were executed to test the linearity of the calibration curve and the precision and accuracy of measuring validation samples (over 4 concentrations). Additional runs to evaluate recovery, matrix factor/suppression effects, reinjection reproducibility, and carryover were also performed. The selectivity of the method was evaluated over 10 lots of human plasma and the same lots were spiked at the mid QC level to verify inter-subject precision and accuracy. Freeze/thaw, benchtop, and autosampler stabilities were determined. Precision and accuracy data were also generated in lipemic and hemolyzed plasma lots, and stability in whole blood was tested. Long run lengths (up to 192 samples over 2 plates) were evaluated to determine whether the analytical system was reliable over twice the expected duty cycle.
as §1

half-life [1]: ~10 min
Stability of calibration standard pools ([2]; 80 days): at least 80 days
Stability of calibration standard pools ([2]; 284 days): 284 days
Structure (SMILES): CC(=O)N[C@@H](CS)C(=O)O [NAC, N-acetyl-L-cysteine]
Freeze/Thaw Stability [2]: At least 5 cycles, at either −20 °C or −80° C., either analyte
Benchtop Stability ([2]; 20 hours): At least 20 hours at room temperature, either analyte
